The source of these data is ChEMBL document CHEMBL1133207, “Syntheses and antifilarial profile of 7-chloro-4-(substituted amino) quinolines: a new class of antifilarial agents” (2000).

Assay [1] in a line: In vivo macrofilaricidal activity against Acanthocheilonema viteae infection in Mastomys natalensis at 200 mg/kg for 5 days after peroral administration. Format: functional. Conditions: route oral.
The nature of assay [2]: The compound was evaluated for sterilization effect on female Acanthocheilonema viteae in Mastomys natalensis. Format: functional, Mus musculus. Also noted: concentration or dose not given beside the values.
A short description of assay [3]: In vivo microfilariacidal activity against Acanthocheilonema viteae infection in Mastomys natalensis at 200 mg/kg for 5 days after peroral administration. The note with it: route oral. The format is functional.
Assay [4] has as its system Mus musculus. In words: In vivo macrofilaricidal activity against Acanthocheilonema viteae infection in Mastomys natalensis at 200 mg/kg for 5 days after peroral administration; Inactive. The format is functional, organism-based. Also noted: dose 200 mg/kg.
Assay [5] is filed under the species Mus musculus. In words: The compound was evaluated for sterilization effect on female Acanthocheilonema viteae in Mastomys natalensis; Inactive. Format: functional, organism-based.
The subject of assay [6] is Mus musculus. In words: In vivo microfilariacidal activity against Acanthocheilonema viteae infection in Mastomys natalensis at 200 mg/kg for 5 days after peroral administration; Inactive. The format is functional, organism-based. Also noted: dose 200 mg/kg.

Each structure is given as a SMILES string. Activity calls are given as the source filed them. No cut-off for these calls is given here.

Consider `CC(C)(C)OC(=O)NCC(=O)N1CCN(CCNc2ccnc3cc(Cl)ccc23)CC1`, for which the Reduction is given as 0% in assay [1], 63% in assay [2] and 0% in assay [3].

On to `Clc1ccc2c(NCCN3CCN(c4ccccn4)CC3)ccnc2c1`, for which the Reduction entry in assay [4], in assay [5] and in assay [6] was “inactive” in each case.

With `NCC(=O)N1CCN(CCNc2ccnc3cc(Cl)ccc23)CC1`, the Reduction entry in assay [4], in assay [5] and in assay [6] was “inactive” in each case.

On to `CCC(C)C(NC(=O)OC(C)(C)C)C(=O)N1CCN(CCNc2ccnc3cc(Cl)ccc23)CC1` (stereo not drawn), for which the Reduction entry in assay [4], in assay [5] and in assay [6] was “inactive” in each case.

Consider `O=C(C1CCCN1)N1CCN(CCNc2ccnc3cc(Cl)ccc23)CC1` (stereo not drawn), for which the Reduction entry in assay [4], in assay [5] and in assay [6] was “inactive” in each case.

Turning to `ClCCNc1ccnc2cc(Cl)ccc12`, the Reduction result in assay [4], in assay [5] and in assay [6] was “inactive” in each case.

In the case of `O=[N+]([O-])c1ccc(NNc2ccnc3cc(Cl)ccc23)cc1`, the Reduction in assay [1] stood at 78%; in assay [2], 50%; in assay [3] it was 41%.

As to `CC(C)(C)OC(=O)NC(Cc1ccccc1)C(=O)N1CCN(CCNc2ccnc3cc(Cl)ccc23)CC1` (stereo not drawn), the values for the Reduction in assay [1], in assay [2] and in assay [3] were 0%, 50% and 0%, respectively.

With `OCCNc1ccnc2cc(Cl)ccc12`, the Reduction in assay [1] stood at 22%; in assay [2], 0%; in assay [3], 86%.

As to `O=C(O)C(CCCCNc1ccnc2cc(Cl)ccc12)Nc1ccnc2cc(Cl)ccc12` (stereo not drawn), the results for the Reduction in assay [1], in assay [2] and in assay [3] were 0%, 0% and 85%, respectively.

`Clc1ccc2c(NCCN3CCNCC3)ccnc2c1`: the Reduction result in assay [4], in assay [5] and in assay [6] was “inactive” each time.

`CC(NC(=O)OC(C)(C)C)C(=O)N1CCN(CCNc2ccnc3cc(Cl)ccc23)CC1` (stereo not drawn): the Reduction entry in assay [4], in assay [5] and in assay [6] was “inactive” throughout.

Turning to `CCC(C)C(N)C(=O)N1CCN(CCNc2ccnc3cc(Cl)ccc23)CC1` (stereo not drawn), the Reduction entry in assay [4], in assay [5] and in assay [6] was “inactive” in each case.

Take `N#Cc1ccc(OCCNc2ccnc3cc(Cl)ccc23)cc1`: the Reduction in assay [1] was found to be 56%; in assay [2] it was 0%; in assay [3], 0%.

Turning to `NC(Cc1ccccc1)C(=O)N1CCN(CCNc2ccnc3cc(Cl)ccc23)CC1` (stereo not drawn), the Reduction entry in assay [4], in assay [5] and in assay [6] was “inactive” each time.

In the case of `CC(C)(C)OC(=O)N1CCCC1C(=O)N1CCN(CCNc2ccnc3cc(Cl)ccc23)CC1` (stereo not drawn), the Reduction entry in assay [4], in assay [5] and in assay [6] was “inactive” in each case.

For `O=[N+]([O-])c1ccc(OCCNc2ccnc3cc(Cl)ccc23)cc1`, the Reduction entry in assay [4], in assay [5] and in assay [6] was “inactive” each time.

In the case of `Clc1ccc2c(NCc3ccco3)ccnc2c1`, the Reduction result in assay [4], in assay [5] and in assay [6] was “inactive” in each case.

Take `CCN(CC)C(=O)N1CCN(C)CC1.O=C(O)CC(O)(CC(=O)O)C(=O)O` [DIETHYLCARBAMAZINE CITRATE]: the Reduction in assay [1] came out at 0%; in assay [2], 0%; in assay [3] it was 90%.

Consider `CC(N)C(=O)N1CCN(CCNc2ccnc3cc(Cl)ccc23)CC1` (stereo not drawn), for which the Reduction came to 0% in assay [1], 100% in assay [2] and 0% in assay [3].

Turning to `O=[N+]([O-])c1cc2c(NCCO)ccnc2cc1Cl`, the Reduction in assay [1] is 58%; in assay [2] it was 0%; in assay [3] it was 0%.
